Data set [1] can be described thus: Tmax in Sprague-Dawley rat at 10 mg/kg, po. The format is ADME, organism-based. More on the design: dose 10 mg/kg, route oral. The note with it: in vivo.
Data set [2] in a line: Oral bioavailability in Sprague-Dawley rat at 10 mg/kg. In kind it is ADME, organism-based. The conditions noted are these: in vivo.
A short description of data set [3]: Cmax in Sprague-Dawley rat at 10 mg/kg, po. In kind it is ADME, organism-based. Also on record: dose 10 mg/kg, route oral. The conditions noted are these: in vivo.
The nature of data set [4]: Volume of distribution at steady state in Sprague-Dawley rat at 2 mg/kg, iv. Also on record: dose 2 mg/kg, route intravenous. The note with it: in vivo, read-out: Vdss. The format is ADME, organism-based.
Data set [5] can be described thus: Drug uptake in Sprague-Dawley rat CSF at 30 mg/kg, po at 4 hrs. The conditions noted are these: cerebrospinal fluid, read-out: Drug uptake. Also on record: dose 30 mg/kg, route oral. In kind it is ADME, organism-based.
Data set [6] can be described thus: Plasma concentration in Sprague-Dawley rat at 30 mg/kg, po at 4 hrs. The format is ADME, organism-based. Also on record: dose 30 mg/kg, route oral.
Data set [7] in a line: AUC (0 to infinity) in Sprague-Dawley rat at 10 mg/kg, po. In kind it is ADME, organism-based. More on the design: time infinity, dose 10 mg/kg, route oral. The conditions noted are these: plasma.
A short description of the next data set: in vitro. The conditions noted are these: pig, LLC-PK1.

By Tmax is commonly meant the time at which the peak concentration occurs. By Cmax is commonly meant the maximum level reached in the sampled fluid or tissue. Broadly, the AUC(0-inf) is total exposure, with the tail of the curve extrapolated. What is called Papp is the rate of passage across a membrane or cell layer, normalised by area and donor concentration.

For `C#Cc1cccc(C[C@H](NC(=O)COC)[C@H](O)CN[C@H]2CC3(CCC3)Oc3ncc(CC(C)(C)C)cc32)c1`, in data set [1], the Tmax worked out at 5.33 h. Moreover, in data set [2], the bioavailability was found to be 100%. In data set [3], this compound showed a Cmax of 4860 ng/mL. The Vd in data set [4] came out at 1.54 L/kg. Also, the results for the concentration at 4 h in data set [5] and in data set [6] were 78 nM and 3.54 µM, respectively. In data set [7], the AUC(0-inf) came to 24200 ng·h/mL.

As to `COCC(=O)N[C@@H](Cc1cccc(-c2ccncc2)c1)[C@H](O)CN[C@H]1CC2(CCC2)Oc2ncc(CC(C)(C)C)cc21`, the Papp at 2 h in “in vitro” is 22 ×10⁻⁶ cm/s.

Turning to `COCC(=O)N[C@@H](Cc1cc(-c2nccs2)ccc1F)[C@H](O)CN[C@H]1CC2(CCC2)Oc2ncc(CC(C)(C)C)cc21`, the Papp at 2 h in the data set “in vitro” stood at 11 ×10⁻⁶ cm/s.

In turn, `COCC(=O)N[C@@H](Cc1ccc(F)c(-c2nccs2)c1)[C@H](O)CN[C@H]1CC2(CCC2)Oc2ncc(CC(C)(C)C)cc21` came in with a Papp at 2 h in the data set “in vitro” of 28 ×10⁻⁶ cm/s.

Regarding `COCC(=O)N[C@@H](Cc1cccc(-c2nccs2)c1)[C@H](O)CN[C@H]1CC2(CCC2)Oc2ncc(CC(C)(C)C)cc21`, the Tmax in data set [1] is 3.33 h. Further, the bioavailability in data set [2] turned out to be 120%. Also, the peak level in data set [3] (Cmax) was 1890 ng/mL. For the same compound, in data set [4], the Vd was 2.19 L/kg. Further, the concentration at 4 h was determined as 52 nM in data set [5] and 3.27 µM in data set [6]. In addition, in data set [7], the AUC(0-inf) came out at 9030 ng·h/mL.
